{
  "source": "patent US9987299B2",
  "about": "“Methods of improving RNAi in well-differentiated airway epithelia” (University of Iowa Research Foundation, priority 2014, dated 2018)",
  "key": {"RSV strain A2": {"tested_on": "RSV strain A2", "assay": "RSV titer in apical washings of infected HAE (plaque assay on HEp-2 cells)", "type": "cell-based, Respiratory Syncytial Virus", "from_the_text": "FIG. 6. […] HAE was either treated or untreated with PAF in concurrence with RSV N DsiRNA. Six hours later the cells were infected with RSV at an MOI of 1. Forty eight hours later, the cell washings from the apical surface was collected and assayed for viral titer (a). The cells were lysed and the proteins visualized after immunoprecipitation with anti-RSV antibodies (b) and the bands quantified by densitometry (c). Data are mean±SD from the results three different experiments, each using a different donor. ***p<0.001 (Student's t-test).\nFor infections, RSV aliquots were resuspended in cold DMEM or DMEM/F12. RSV strain A2 (wt RSV) was kindly provided by Barney Graham (NIH, Bethesda, Md.), and working stocks of RSV were prepared in HEp-2 cells (ATCC).\nRSV infection of HAE for both for immunoblot and viral titer was done at an MOI of 1. The virus was thawed at 37° C. and diluted in MEM (0% FCS) to a volume of 70 μl (1MOI)/well. The cells in Millicell filters were rinsed with the same media once and the virus applied to the apical surface. The plate was incubated at 37° C. for a period of 2 hours. […]\nHEp-2 cells were seeded onto 12-well plate at a sufficient density so that it reached 90-95% confluence the next day. […] The cells were incubated for an additional 24 hours at 37° C. after which the plaques were counted under a light box. […]"}, "Human HPRT mRNA": {"tested_on": "Human HPRT mRNA", "assay": "HPRT mRNA silencing by DsiRNA-Transductin in well-differentiated HAE (RT-qPCR)", "type": "cell-based", "protocol": "FIG. 1. […] (a) Well-differentiated HAE cultures grown at the ALI were incubated in adding HPRT-targeting or control NC1 DsiRNA (250 nM) formulated with Transductin containing 0.1 or 0.01 mg LOS (HPRT-targeting DsiRNAs) or 0.1 mg LOS (NC1 DsiRNA). After 4 hours, the apical surface was rinsed and 24 hours later, target RNA levels quantified by RT-qPCR. All mRNA levels were normalized to NC1-treated samples. Mean levels were calculated from three biological replicates, each done in triplicate. ***p<0.001, **p<0.01 (Student's t-test). […] Samples were normalized to NC1-treated cells. ***p<0.001, **p<0.01 (Student's t-test). […] PAFRa was present throughout transfection in cells pre-treated with the reagent. Cells were harvested and RNA quantified 24 hrs later. Samples were normalized to NC1-treated cells. **p<0.01 (Student's t-test).\nFIG. 3. Spiperone improves RNAi responses in DsiRNA transduced cells. HAE were pre-treated with various small molecules at the concentration indicated. The drugs were added to the apical surface and the basolateral media for 6 hours. Both surfaces were then washed and HPRT or NC1 DsiRNA formulated with Transductin added to the apical surface. The cells were washed after 4 hours, and RT-qPCR done on cell lysates harvested 24 hours later.\nHuman airway epithelial cells were obtained from trachea and bronchi of lungs removed for organ donation from non-CF individuals. Cells were isolated by enzyme digestion as previously described. Following enzymatic dispersion, cells were seeded at a density of 5×10^5 cells/cm^2 onto collagen-coated, 0.6 cm^2 semi permeable membrane filters (Millipore polycarbonate filters; Millipore Corp., Bedford, Mass.). The cells were maintained at 37° C. in a humidified atmosphere of 5% CO2 air. Twenty-four hours after plating, the apical media was removed and the cells were maintained at an air-liquid interface (ALI) to allow differentiation of the epithelium. The culture medium consisted of 1:1 ratio mix of Dulbecco's modified Eagle's medium (DMEM)/Ham's F12, 5% Ultroser G (Biosepra S A, Cedex, France), 100 U/ml penicillin, 100 μg/ml streptomycin, 1% nonessential amino acids and 0.12 U/ml insulin. Studies were performed on well-differentiated epithelia approximately 4 to 6 weeks after initiation of the ALI cultures conditions. HEp-2 cells were maintained in MEM substituted with 10% fetal bovine serum and 100 U/ml penicillin.\nPAF was purchased from Sigma-Aldrich. The reagent was reconstituted in ethanol and used in the experiment at a concentration of 200 nM or as described in the figures. PAF was added to the transfection mixture at the apical surface as well as to the basolateral media. PAFRa (WEB 2086) was purchased from Sigma-Aldrich. […] The reagent was incubated with the cells throughout the transfection period.\nAll the small molecules tested were purchased from Sigma-Aldrich. The chemicals were reconstituted in appropriate solutions as recommended by the manufacturer. The epithelia were pre-treated with drugs for 6 hours at concentrations used in the CMAP study or noted in the published literature. Following drug treatment, the epithelia were transduced with DsiRNA as described above.\nFor well-differentiated airway epithelia, transfection was performed mostly according to the manufacturer's protocol. In all cases, the apical surface of epithelia was rinsed twice with PBS before adding the transfection mixture to the apical surface. DsiRNAs were used at a concentration of 250 nM. The mixture was left on the cells for 4 hours after which the medium was removed, the apical surface rinsed with PBS and the cells incubated further for 24 hours. For all experiments, a minimum of 3 biological replicates, in triplicate, were done.\nTotal RNA was isolated using SV96 RNA isolation kit (Promega, Madison, Wis.), according to manufacturer's protocol. […]"}},
  "data": [
    {"substance": "platelet activating factor [PAF]", "values": [
      {"measurement": "reduction of viral titers from apical rinses", "setting": "RSV strain A2; PAF with RSV N DsiRNA-Transductin, RSV MOI 1 six hours later, 48 hours after infection", "value": "more than 100 fold"},
      {"measurement": "effect on viral titers", "setting": "RSV strain A2; PAFR activation alone (no RSV N DsiRNA effect)", "value": "did not reduce viral titers"},
      {"measurement": "duration of knock down: HPRT mRNA levels", "setting": "Human HPRT mRNA; 1 and 3 days post PAF-assisted transfection", "value": "significantly reduced"},
      {"measurement": "duration of knock down: HPRT transcript levels", "setting": "Human HPRT mRNA; 6 and 10 days post PAF-assisted transfection", "value": "returning to basal levels"},
      {"measurement": "dose-response of PAF on DsiRNA silencing", "setting": "Human HPRT mRNA; PAF at different doses, 4 hours with HPRT DsiRNA-Transductin (FIG. 7)", "value": "A dose-response relationship for PAF on DsiRNA silencing was observed"}
    ]}
  ]
}
